Measured values from ChEMBL document CHEMBL4014354, “2'-Chloro,2'-fluoro Ribonucleotide Prodrugs with Potent Pan-genotypic Activity against Hepatitis C Virus Replication in Culture” (J Med Chem, 2017).
pEC50, pIC50: −log10 of the molar value.

Tests used:
[1] = Inhibition of C-terminal His-tagged HCV genotype 1b NS5Bdelta21 expressed in Escherichia coli BL21 (DE3) using synthetic 20mer RNA/[32P]GpG as template/primer after 90 mins by PAGE analysis; parameters: species or system Hepatitis C virus subtype 1b
[2] = Inhibition of HCV genotype 1b NS5B S96T mutant; parameters: species or system Hepatitis C virus subtype 1b
[3] = Inhibition of wild type HCV genotype 2a NS5B; parameters: species or system Hepatitis C virus subtype 2a
[4] = Inhibition of wild type HCV genotype 4a NS5B; parameters: species or system Hepatitis C virus subtype 4a
[5] = Inhibition of RNA polymerase 2 isolated from human HeLa cell nuclear extract assessed as decrease in incorporation of P32-alpha-CTP after 2 hrs by scintillation counting method; format: cell-free
[6] = biological target: DNA-directed RNA polymerase, mitochondrial (Homo sapiens) (UniProt O00411); assay: Inhibition of human POLRMT using 5'-P32-RNA/DNA hybrid assessed as incorporation of UTP at 100 uM after 2 hrs by scintillation counting method relative to control; parameters: scale not given: the % may be the effect or the level left
Chain of DNA-directed RNA polymerase, mitochondrial (Homo sapiens) (O00411 whole entry): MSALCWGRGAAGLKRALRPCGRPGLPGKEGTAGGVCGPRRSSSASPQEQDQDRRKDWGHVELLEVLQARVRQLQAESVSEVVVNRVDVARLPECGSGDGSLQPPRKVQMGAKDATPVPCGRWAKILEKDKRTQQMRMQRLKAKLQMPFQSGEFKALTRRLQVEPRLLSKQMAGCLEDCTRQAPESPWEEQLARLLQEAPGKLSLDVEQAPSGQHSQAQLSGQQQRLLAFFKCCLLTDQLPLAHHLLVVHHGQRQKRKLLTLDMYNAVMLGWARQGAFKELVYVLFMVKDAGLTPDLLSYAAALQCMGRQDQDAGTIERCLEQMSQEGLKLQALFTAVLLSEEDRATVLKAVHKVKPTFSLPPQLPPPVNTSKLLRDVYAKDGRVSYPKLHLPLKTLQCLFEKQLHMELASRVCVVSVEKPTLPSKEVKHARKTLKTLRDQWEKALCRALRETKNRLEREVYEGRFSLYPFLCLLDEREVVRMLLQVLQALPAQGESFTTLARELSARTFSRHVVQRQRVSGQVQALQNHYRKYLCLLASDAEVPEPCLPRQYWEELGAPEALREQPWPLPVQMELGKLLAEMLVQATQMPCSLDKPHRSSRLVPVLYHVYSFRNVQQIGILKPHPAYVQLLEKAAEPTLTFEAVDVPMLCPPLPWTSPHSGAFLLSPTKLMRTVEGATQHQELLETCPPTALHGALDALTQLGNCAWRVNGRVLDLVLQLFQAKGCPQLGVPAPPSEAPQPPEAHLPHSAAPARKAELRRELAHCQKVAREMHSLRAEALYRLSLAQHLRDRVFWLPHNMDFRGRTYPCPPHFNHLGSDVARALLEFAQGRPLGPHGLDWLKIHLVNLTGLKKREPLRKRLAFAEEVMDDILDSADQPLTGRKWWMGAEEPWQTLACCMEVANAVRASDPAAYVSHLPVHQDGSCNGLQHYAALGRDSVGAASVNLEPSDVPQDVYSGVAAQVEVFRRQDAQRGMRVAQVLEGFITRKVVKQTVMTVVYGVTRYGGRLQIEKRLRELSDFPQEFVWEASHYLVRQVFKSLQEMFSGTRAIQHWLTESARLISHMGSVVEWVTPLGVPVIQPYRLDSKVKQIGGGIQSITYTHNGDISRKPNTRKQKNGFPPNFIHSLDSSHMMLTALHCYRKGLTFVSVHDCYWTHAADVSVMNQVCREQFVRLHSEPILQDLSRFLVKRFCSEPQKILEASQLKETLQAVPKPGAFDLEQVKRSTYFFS

[7] = biological target: T1, DNA polymerase alpha catalytic subunit (Homo sapiens, UniProt P09884); assay: Inhibition of human DNA polymerase alpha using 5' end radiolabeled 24nt DNA/48nt DNA as primer/template after 5 mins by PAGE analysis
T1 sequence (P09884 whole entry): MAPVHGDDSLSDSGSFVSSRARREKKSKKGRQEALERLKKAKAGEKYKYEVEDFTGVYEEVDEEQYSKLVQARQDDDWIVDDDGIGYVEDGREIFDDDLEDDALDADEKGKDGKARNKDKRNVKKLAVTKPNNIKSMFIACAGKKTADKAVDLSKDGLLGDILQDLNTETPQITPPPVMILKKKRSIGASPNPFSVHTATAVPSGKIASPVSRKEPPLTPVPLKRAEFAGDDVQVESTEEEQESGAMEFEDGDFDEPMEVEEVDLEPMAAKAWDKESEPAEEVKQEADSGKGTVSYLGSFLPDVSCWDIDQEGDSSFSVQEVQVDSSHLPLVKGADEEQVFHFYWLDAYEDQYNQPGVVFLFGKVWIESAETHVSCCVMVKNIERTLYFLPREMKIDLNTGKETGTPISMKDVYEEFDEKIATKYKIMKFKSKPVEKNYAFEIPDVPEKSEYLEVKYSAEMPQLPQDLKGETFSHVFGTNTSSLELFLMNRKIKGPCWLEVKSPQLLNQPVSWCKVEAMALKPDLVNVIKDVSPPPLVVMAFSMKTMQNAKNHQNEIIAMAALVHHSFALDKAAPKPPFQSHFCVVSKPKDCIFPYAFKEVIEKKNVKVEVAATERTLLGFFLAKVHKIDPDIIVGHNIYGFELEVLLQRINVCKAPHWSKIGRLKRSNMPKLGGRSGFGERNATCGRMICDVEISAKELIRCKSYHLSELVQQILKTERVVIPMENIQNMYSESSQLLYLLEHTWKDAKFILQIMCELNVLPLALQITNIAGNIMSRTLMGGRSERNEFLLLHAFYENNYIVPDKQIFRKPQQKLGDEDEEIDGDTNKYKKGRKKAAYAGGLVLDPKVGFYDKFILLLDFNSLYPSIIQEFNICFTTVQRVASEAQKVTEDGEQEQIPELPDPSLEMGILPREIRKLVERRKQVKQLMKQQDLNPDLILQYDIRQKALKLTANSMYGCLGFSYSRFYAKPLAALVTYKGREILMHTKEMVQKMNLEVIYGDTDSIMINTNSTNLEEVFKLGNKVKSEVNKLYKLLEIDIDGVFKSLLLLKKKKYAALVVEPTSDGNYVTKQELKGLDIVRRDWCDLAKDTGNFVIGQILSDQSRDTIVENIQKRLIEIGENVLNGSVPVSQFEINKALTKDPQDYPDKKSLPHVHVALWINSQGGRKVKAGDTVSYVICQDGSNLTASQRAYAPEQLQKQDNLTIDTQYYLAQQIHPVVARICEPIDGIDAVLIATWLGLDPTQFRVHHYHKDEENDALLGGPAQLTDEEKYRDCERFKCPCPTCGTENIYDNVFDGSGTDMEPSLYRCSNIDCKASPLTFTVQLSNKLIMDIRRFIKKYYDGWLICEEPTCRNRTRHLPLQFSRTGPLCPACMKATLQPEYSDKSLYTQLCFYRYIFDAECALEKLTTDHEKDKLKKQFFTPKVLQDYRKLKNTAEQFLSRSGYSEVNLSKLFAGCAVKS

DNA polymerase beta = DNA polymerase beta (Homo sapiens, UniProt P06746); assay: Inhibition of human DNA polymerase beta using 5' end radiolabeled 24nt DNA/48nt DNA as primer/template after 5 mins by PAGE analysis
[8] = Inhibition of human DNA polymerase gamma using 5' end radiolabeled 24nt DNA/36nt DNA as primer/template after 120 mins by PAGE analysis
Hepatitis C virus [9] = assay: Antiviral activity against HCV genotype 1b harboring wild type NS5B infected in human HuH7 cells assessed as inhibition of viral RNA replication after 5 days by RT-PCR method; format: functional, cell-based, Hepacivirus hominis; details: Huh-7, 120 h
[10] = Cytotoxicity against human HuH7 cells assessed as inhibition of cell proliferation after 4 days by MTS assay; format: cell-based, Huh-7
[11] = Cytotoxicity against human PBMC assessed as inhibition of cell proliferation after 5 days by MTT assay; format: cell-based
[12] = Cytotoxicity against human CEM cells assessed as inhibition of cell proliferation after 4 days by MTT assay; format: cell-based, CCRF-CEM
[13] = Cytotoxicity against African green monkey Vero cells assessed as inhibition of cell proliferation after 3 days by MTT assay; format: cell-based; details: chlorocebus sabaeus
Hepatitis C virus [14] = assay: Antiviral activity against HCV genotype 1a infected in human HuH7 cells assessed as inhibition of viral RNA replication after 96 hrs by RT-PCR method; format: functional, cell-based, Hepacivirus hominis; details: subtype 1a, Huh-7, 96 h
Hepatitis C virus [15] = assay: Antiviral activity against HCV genotype 1b infected in human HuH7 cells assessed as inhibition of viral RNA replication after 96 hrs by RT-PCR method; format: functional, cell-based, Hepacivirus hominis; details: Huh-7, 96 h
Hepatitis C virus [16] = assay: Antiviral activity against HCV genotype 2a/k infected in human HuH7 cells assessed as inhibition of viral RNA replication after 96 hrs by RT-PCR method; format: functional, cell-based, Hepacivirus hominis; details: Huh-7, 96 h
Hepatitis C virus [17] = assay: Antiviral activity against HCV genotype 2b infected in human HuH7 cells assessed as inhibition of viral RNA replication after 96 hrs by RT-PCR method; format: functional, cell-based, Hepacivirus hominis; details: Huh-7, 96 h
Hepatitis C virus [18] = assay: Antiviral activity against HCV genotype 3a infected in human HuH7 cells assessed as inhibition of viral RNA replication after 96 hrs by RT-PCR method; format: functional, cell-based, Hepacivirus hominis; details: Huh-7, 96 h
Hepatitis C virus [19] = assay: Antiviral activity against HCV genotype 4 infected in human HuH7 cells assessed as inhibition of viral RNA replication after 96 hrs by RT-PCR method; format: functional, cell-based, Hepacivirus hominis; details: genotype 4, Huh-7, 96 h
Hepatitis C virus [20] = assay: Antiviral activity against HCV genotype 1b harboring NS5B S282T mutant infected in human HuH7 cells assessed as inhibition of viral RNA replication after 4 days by luciferase reporter gene assay; format: functional, cell-based, Hepacivirus hominis; details: Huh-7, 96 h
Hepatitis C virus [21] = assay: Selectivity ratio of EC50 for HCV genotype 1b harboring NS5B S282T mutant to EC50 for HCV genotype 1b harboring wild type NS5B; format: functional, Hepacivirus hominis
Hepatitis C virus [22] = assay: Selectivity ratio of EC90 for HCV genotype 1b harboring NS5B S282T mutant to EC90 for HCV genotype 1b harboring wild type NS5B; format: functional, Hepacivirus hominis
[23] = test system: cytochrome c oxidase subunit 2 DNA (mitochondrial DNA) levels; assay: Mitochondrial toxicity in human HepG2 cells assessed as inhibition of cytochrome c oxidase subunit 2 DNA levels at 50 uM measured on day 14 by RT-PCR method relative to nuclear beta-actin DNA levels; format: cell-based
nuclear DNA levels [24] = assay: Cytotoxicity against human HepG2 cells assessed as inhibition of nuclear DNA levels at 50 uM measured on day 14 by RT-PCR method relative to nuclear beta-actin DNA levels; format: cell-based; details: read-out: INH
[25] = test system: cytochrome c oxidase subunit 2 DNA (mitochondrial DNA) levels; assay: Mitochondrial toxicity in human HepG2 cells assessed as inhibition of cytochrome c oxidase subunit 2 DNA levels measured on day 14 by RT-PCR method; format: cell-based
HepG2 [26] = assay: Cytotoxicity against human HepG2 cells assessed as inhibition of nuclear DNA levels measured on day 14 by RT-PCR method; details: HepG2, 336 h
HepG2 [27] = assay: Mitochondrial toxicity in human HepG2 cells assessed as cytochrome c oxidase subunit 2 DNA levels at 10 uM measured on day 14 by RT-PCR method relative to nuclear beta-actin DNA levels; details: hepg2, 10 µM
HepG2 [28] = assay: Mitochondrial toxicity in human HepG2 cells assessed as cytochrome c oxidase subunit 2 DNA levels at 50 uM measured on day 14 by RT-PCR method relative to nuclear beta-actin DNA levels; format: cell-based; details: hepg2, 50 µM
Cytochrome P450 3A4 = Cytochrome P450 3A4 (Homo sapiens, UniProt P08684); assay: Inhibition of human CYP3A4 using ketoconazole […]; format: ADME
Chain of Cytochrome P450 3A4 (P08684 whole entry): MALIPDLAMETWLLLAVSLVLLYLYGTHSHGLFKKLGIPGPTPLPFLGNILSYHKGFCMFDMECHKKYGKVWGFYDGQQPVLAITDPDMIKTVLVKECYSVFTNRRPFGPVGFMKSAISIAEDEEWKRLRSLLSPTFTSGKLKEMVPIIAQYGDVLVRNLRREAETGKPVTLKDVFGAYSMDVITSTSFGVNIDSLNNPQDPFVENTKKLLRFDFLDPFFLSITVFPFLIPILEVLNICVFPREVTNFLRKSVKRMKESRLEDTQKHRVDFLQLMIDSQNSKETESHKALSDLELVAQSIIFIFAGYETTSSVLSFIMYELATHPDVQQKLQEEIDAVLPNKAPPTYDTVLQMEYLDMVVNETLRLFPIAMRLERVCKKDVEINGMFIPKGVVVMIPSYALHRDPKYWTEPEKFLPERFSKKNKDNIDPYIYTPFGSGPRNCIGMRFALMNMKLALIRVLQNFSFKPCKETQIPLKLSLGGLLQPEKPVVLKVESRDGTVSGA

Cytochrome P450 2C9 = Cytochrome P450 2C9 (Homo sapiens, UniProt P11712); assay: Inhibition of human CYP2C9 using sulfaphenazole […]; format: ADME
Chain of Cytochrome P450 2C9 (P11712 whole entry): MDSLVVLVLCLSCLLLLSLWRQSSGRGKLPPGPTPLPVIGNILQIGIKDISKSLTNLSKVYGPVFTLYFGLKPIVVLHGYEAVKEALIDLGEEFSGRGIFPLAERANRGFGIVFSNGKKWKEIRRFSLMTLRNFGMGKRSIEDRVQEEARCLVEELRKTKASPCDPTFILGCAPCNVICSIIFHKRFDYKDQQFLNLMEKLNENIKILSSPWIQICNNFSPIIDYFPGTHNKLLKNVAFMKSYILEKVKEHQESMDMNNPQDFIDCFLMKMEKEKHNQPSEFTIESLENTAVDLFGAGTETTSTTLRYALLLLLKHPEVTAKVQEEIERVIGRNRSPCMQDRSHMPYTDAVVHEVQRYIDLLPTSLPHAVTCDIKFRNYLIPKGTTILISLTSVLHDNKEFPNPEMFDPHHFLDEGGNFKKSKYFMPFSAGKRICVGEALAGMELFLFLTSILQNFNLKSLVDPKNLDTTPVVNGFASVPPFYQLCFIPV

Cytochrome P450 1A2 = biological target: T2, Cytochrome P450 1A2 (Homo sapiens, UniProt P05177); assay: Inhibition of human CYP1A2 using alpha-naphthoflavone […]; format: ADME
T2 sequence (P05177 whole entry): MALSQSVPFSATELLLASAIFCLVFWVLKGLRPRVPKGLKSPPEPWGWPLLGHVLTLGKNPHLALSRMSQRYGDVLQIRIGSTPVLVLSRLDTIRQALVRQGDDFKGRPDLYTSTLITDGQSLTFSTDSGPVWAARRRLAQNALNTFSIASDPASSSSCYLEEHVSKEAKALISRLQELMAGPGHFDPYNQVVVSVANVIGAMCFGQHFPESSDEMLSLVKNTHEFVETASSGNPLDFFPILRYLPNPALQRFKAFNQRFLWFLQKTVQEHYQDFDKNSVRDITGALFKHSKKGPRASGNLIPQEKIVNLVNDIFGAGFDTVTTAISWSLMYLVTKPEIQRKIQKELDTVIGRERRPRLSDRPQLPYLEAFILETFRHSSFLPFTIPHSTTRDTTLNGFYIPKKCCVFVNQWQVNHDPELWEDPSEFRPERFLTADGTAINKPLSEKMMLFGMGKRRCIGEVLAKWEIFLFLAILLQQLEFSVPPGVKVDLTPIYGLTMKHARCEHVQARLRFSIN

Cytochrome P450 2D6 = Cytochrome P450 2D6 (Homo sapiens, UniProt P10635); assay: Inhibition of human CYP2D6 using quinidine […]; format: ADME
Chain of Cytochrome P450 2D6 (P10635 whole entry): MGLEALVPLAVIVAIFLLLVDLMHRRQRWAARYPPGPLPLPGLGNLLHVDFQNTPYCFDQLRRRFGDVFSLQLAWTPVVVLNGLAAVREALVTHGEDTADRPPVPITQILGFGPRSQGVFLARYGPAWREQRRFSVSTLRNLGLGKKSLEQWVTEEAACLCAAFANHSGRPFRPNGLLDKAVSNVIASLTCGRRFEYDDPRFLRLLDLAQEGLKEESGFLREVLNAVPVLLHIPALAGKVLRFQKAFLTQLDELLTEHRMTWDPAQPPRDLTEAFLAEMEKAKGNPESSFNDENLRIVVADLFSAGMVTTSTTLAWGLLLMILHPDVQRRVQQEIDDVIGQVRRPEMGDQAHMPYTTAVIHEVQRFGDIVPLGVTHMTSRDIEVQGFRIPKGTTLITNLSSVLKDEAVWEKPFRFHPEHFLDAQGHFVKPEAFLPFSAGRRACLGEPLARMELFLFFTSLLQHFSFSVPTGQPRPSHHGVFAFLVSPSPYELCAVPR

[29] = test system: cytochrome c oxidase subunit 2 DNA (mitochondrial DNA) levels; assay: Mitochondrial toxicity in human HepG2 cells assessed as inhibition of cytochrome c oxidase subunit 2 DNA levels at 25 uM measured on day 14 by RT-PCR method relative to nuclear beta-actin DNA levels; format: cell-based
nuclear DNA levels [30] = assay: Cytotoxicity against human HepG2 cells assessed as inhibition of nuclear DNA levels at 25 uM measured on day 14 by RT-PCR method relative to nuclear beta-actin DNA levels; format: cell-based; details: read-out: INH
HepG2 [31] = assay: Mitochondrial toxicity in human HepG2 cells assessed as cytochrome c oxidase subunit 2 DNA levels at 25 uM measured on day 14 by RT-PCR method relative to nuclear beta-actin DNA levels; format: cell-based; details: hepg2, 25 µM
[32] = test system: cytochrome c oxidase subunit 2 DNA (mitochondrial DNA) levels; assay: in vitro; details: human, HepG2 cells
nuclear DNA levels [33] = assay: in vitro; details: human, HepG2 cells

O=c1ccn([C@@H]2O[C@H](COP(=O)(O)OP(=O)(O)OP(=O)(O)O)C(O)C2(F)Cl)c(=O)[nH]1 (single isomer, unassigned)
pIC50 [1]: 5.26
pIC50 [2]: 4.89
pIC50 [3]: 5.21
pIC50 [4]: 5.07
pIC50 [5]: < 4.00
Activity [6]: 35%
pIC50 [7]: 4.69
pIC50 (DNA polymerase beta): < 4.00
pIC50 [8]: < 4.00

CC(C)OC(=O)[C@H](C)N[P@](=O)(OC[C@H]1O[C@@H](n2ccc(=O)[nH]c2=O)[C@](C)(F)[C@@H]1O)Oc1ccccc1 [SOFOSBUVIR]
pEC50 (Hepatitis C virus [9]): 6.70 to 7.05
EC90 (Hepatitis C virus [9]): 0.3 to 0.5 µM
CC50 at 96 h [10]: > 10 µM
CC50 at 120 h [11]: > 100 µM
CC50 at 96 h [12]: > 100 µM
CC50 at 72 h [13]: > 100 µM
pIC50 (Hepatitis C virus [14]): 7.22
pIC50 (Hepatitis C virus [15]): 7.22
pIC50 (Hepatitis C virus [16]): 7.70
pIC50 (Hepatitis C virus [17]): 7.40
pIC50 (Hepatitis C virus [18]): 7.05
pIC50 (Hepatitis C virus [19]): 7.15
pEC50 (Hepatitis C virus [20]): 6.40
EC90 (Hepatitis C virus [20]): 1 µM
Ratio EC50 (Hepatitis C virus [21]): 4.4
Selectivity ratio (Hepatitis C virus [22]): 3
inhibition at 14 days, 50 µM [23]: < 1%
cytotoxicity at 14 days, 50 µM (nuclear DNA levels [24]): 38.8%
IC50 at 14 days [25]: > 50 µM
pIC50 (HepG2 [26]): < 4.30
Activity (HepG2 [27]): 176%
Activity (HepG2 [28]): 255%
pIC50 (Cytochrome P450 3A4): 5.08
pIC50 (Cytochrome P450 2C9): 4.22
pIC50 (Cytochrome P450 1A2): < 4.00
pIC50 (Cytochrome P450 2D6): < 4.00
inhibition at 14 days, 25 µM [29]: < 1%
cytotoxicity at 14 days, 25 µM (nuclear DNA levels [30]): 38.3%
Activity (HepG2 [31]): 187%
inhibition at 14 days, 10 µM [32]: < 1%
cytotoxicity at 14 days, 10 µM (nuclear DNA levels [33]): 7.3%
